Assay results from patent US20010012631A1, “Plant clonal lines and plants having elevated secondary metabolite levels” (University of Massachusetts Medical Center, a Massachusetts …, priority 1997, published 2001).
Where “and” joins values, the source holds several entries; their conditions need not be identical. Equal entries are not always repeated. Where two headings read alike, the source gives them in different places.

Key:
Format in all cases: cell-based
oregano clonal line 0-4 = settings: ± SD; for RA Levels: 30 days (Example 3)
Protocol: (§1) A mucoid, non-pathogenic Pseudomonas sp. strain was isolated as a contaminant of an oregano shoot culture. This Pseudomonas sp. was termed strain F. This strain was used in selecting Pseudomonas tolerant clonal lines. Strain F was grown on yeast extract-mannitol medium (Difco, Inc., Detroit, Mich.) until the inoculum density was about 10^9 colony forming units/mL. The bacterial suspension was diluted 100-fold in sterile distilled water and about 2.5 ml was dispensed into petri plates. Individual shoots of each clonal line at about 30 days of subculture were removed by cutting at the basal end and then inoculated by dipping the cut end into the diluted bacterial suspension. Inoculated shoots were then transferred to half-strength hormone-free MS medium, which induces root formation, and incubated in a growth room at 23° C., on a 16/8 hours day/night schedule. About 40 shoots of each clone were inoculated. Control shoots of each clonal line were transferred to the same medium, but were not exposed to bacteria.
(§2) Samples of Pseudomonas-treated and untreated control shoots from each line were assayed for rosmarinic acid content and proline content. Rosmarinic acid was extracted from 50 mg of fresh shoot tissue using 2 ml of 50% (v/v) methanol and incubating for 1 hour at 55° C. One ml of the methanol extract was diluted 1:18 and the absorbance of the diluted extract was measured at 333 nm in a Genesys spectrophotometer (Spectronic Instruments, Rochester, N.Y.). The concentration of RA in the extract was calculated using an extinction coefficient of ε333=19,000 τmol^−1cm^−1. Values for the concentration of RA for each treatment/clonal line shown in the Tables and Figures of this application are the average of at least 5 separate extracts. Total rosmarinic acid content was expressed as % g/g fresh weight (FW) of tissue.
(§3) Individual shoot tissue propagules of each clonal line were transferred to half strength hormone-free MS medium supplemented with 100 μM A2C. RA content, proline content, and morphological abnormalities were determined as described in Example 1.
(§4) Shoot tissue from oregano lines 0-4 and 0-5 was also cultured in the presence of A2C for 30 days. Samples of treated and control shoots were then assayed for RA content on a fresh weight basis and for morphological abnormalities.
(§5) Individual shoot tissue propagules of each clonal line were transferred to half strength hormone-free MS medium supplement with A2C. RA content and morphological abnormalities were determined as described in Example 1.

oregano clonal line 0-5 = settings: for RA Levels: 30 days (Example 3)
Protocol: as §1, §2, §3, §4, §5

oregano clonal line OM-1 = settings: 30 days, ± SD
Protocol: as §2
(§6) Oregano lines 0-1, 0-4, and 0-5 of Examples 1 and 2 were tested again for cross-tolerance to A2C. Clonal lines OM-1, and OM-8 of Example 1 were also tested for cross-tolerance to A2C. Line OM-8 was previously shown to be sensitive to Pseudomonas strain F, whereas line OM-1 was tolerant of Pseudomonas strain F. Lines were maintained on MS medium containing BAP as described in Example 1.
as §5

oregano clonal line OM-8 = settings: 30 days
Protocol: as §2, §6, §5

thyme clonal line M-3 = experiment: RA content of shoot propagules, thyme clonal line M-3; settings: 30 to 45 days
Protocol: as §2
(§7) Three clonal thyme lines and five rosemary clonal lines were isolated and maintained in culture as described in U.S. application Ser. No. 08/771,241, filed Dec. 20, 1996 and incorporated herein by reference.
(§8) Individual shoot propagules of each clonal line were transferred to half-strength hormone-free MS media supplemented with A2C and cultured for 30 to 45 days. RA content and morphological abnormalities were determined at the end of the culture period as described in Example 1.

thyme clonal line T-16G = experiment: RA content of shoot propagules, thyme clonal line T-16G; settings: thyme T-16G, 30 to 45 days, ± SD
Protocol: as §2, §7, §8

thyme clonal line T-12 = experiment: RA content of shoot propagules, thyme clonal line T-12; settings: 30 to 45 days, ± SD
Protocol: as §2, §7, §8

rosemary clonal line R-1 = experiment: RA content of shoot propagules, rosemary clonal line R-1; settings: 30 to 45 days
Protocol: as §2, §7, §8

rosemary clonal line R-7 = experiment: RA content of shoot propagules, rosemary clonal line R-7; settings: rosemary R-7, A2C 100 μM, 30 to 45 days; ± SD
Protocol: as §2, §7, §8

Q: With O=C(O)C1CCN1 (stereo not shown) [A2C, azetidine-2-carboxylic acid] as the compound, how does the RA (oregano clonal line 0-4; line 0-4, 100 μM A2C, day 30 (Example 2)) read?
A: Its RA is 4.3 mg/g FW and 4.3 ± 0.7 mg/g FW.

Q: And the “RA Levels” value (oregano clonal line 0-4; line 0-4, A2C 100 μM)?
A: Its value is 6.4 ± 0.8 mg/g FW.

Q: What about the “RA Levels” value (oregano clonal line 0-4; line 0-4, A2C 200 μM) of the same compound?
A: The value was 6.8 ± 0.7 mg/g FW.

Q: What about the RA (oregano clonal line 0-5; line 0-5, 100 μM A2C, 30 days, remaining tissue portions (primarily shoot tips) (Example 2), ± SD) of the same compound?
A: Its RA is 3.2 mg/g FW and 3.2 ± 0.4 mg/g FW.

Q: What about the “RA Levels” value (oregano clonal line 0-5; line 0-5, A2C 100 μM, ± SD) of the same compound?
A: The value was 3.1 ± 0.5 mg/g FW.

Q: And the “RA Levels” value (oregano clonal line 0-5; line 0-5, A2C 200 μM)?
A: The value was “inhibited”.

Q: And the “RA Levels” value (oregano clonal line OM-1; line OM-1, A2C 100 μM)?
A: Its value is 7.1 ± 0.7 mg/g FW.

Q: What about the “RA Levels” value (oregano clonal line OM-1; line OM-1, A2C 200 μM) of the same compound?
A: Its value is 6.4 ± 1.2 mg/g FW.

Q: What about the “RA Levels” value (oregano clonal line OM-8; line OM-8, A2C 100 μM, ± SD) of the same compound?
A: The value was 2.9 ± 0.3 mg/g FW.

Q: What about the “RA Levels” value (oregano clonal line OM-8; line OM-8, A2C 200 μM) of the same compound?
A: Its value is “inhibited”.

Q: What about the “RA Levels” value (thyme clonal line M-3; thyme M-3, A2C 100 μM, ± SD) of the same compound?
A: Its value is 2.4 ± 0.5 mg/g FW.

Q: And the “RA Levels” value (thyme clonal line M-3; thyme M-3, A2C 200 μM)?
A: The value was “inhibited”.

Q: And the “RA Levels” value (thyme clonal line T-16G; A2C 100 μM)?
A: The value was 3.1 ± 0.4 mg/g FW.

Q: And the “RA Levels” value (thyme clonal line T-16G; A2C 200 μM)?
A: The value was 3.7 ± 0.4 mg/g FW.

Q: What about the “RA Levels” value (thyme clonal line T-12; thyme T-12, A2C 100 μM) of the same compound?
A: Its value is 4.1 ± 0.5 mg/g FW.

Q: What about the “RA Levels” value (thyme clonal line T-12; thyme T-12, A2C 200 μM) of the same compound?
A: Its value is 5.1 ± 0.5 mg/g FW.

Q: And the “RA Levels” value (rosemary clonal line R-1; rosemary R-1, A2C 100 μM, ± SD)?
A: Its value is 4.9 ± 0.5 mg/g FW.

Q: And the “RA Levels” value (rosemary clonal line R-1; rosemary R-1, A2C 200 μM)?
A: The value was “inhibited”.

Q: And the “RA Levels” value (rosemary clonal line R-7)?
A: Its value is 6.8 ± 1.1 mg/g FW.
